Values belong to the molecule of their own block, whether it stands above or below them.
Assays:
KM-12 colon cancer cells = test: Antiproliferative activity against human colon cancer cells (KM-12), ATPlite; type: cell-based; details: KM12, KM-12 cells, 72 hours, read-out: Cell proliferation inhibition (KM-12) IC50
Method: The antiproliferative activities of the compounds according to the invention were measured by the ATPlite technique (Perkin Elmer).
Adherent human colon cancer cells (KM-12 colon cancer cells are TrkA-dependent) are inoculated in 96-well plates (3500 cells/well) on day 0, at a concentration compatible with logarithmic growth for the 72 hours required for the evaluation of the compounds. All of the cells are treated on day 1 and then placed in an incubator at 37° C. under an atmosphere of 5% CO2. Cell viability is evaluated on day 4 by assaying released ATP, which is characteristic of viable cells. IC50s are determined by nonlinear regression on the basis of a sigmoidal dose/response relationship model, wherein the Hill coefficient is left variable, carried out on the GraphPad software package according to the algorithm provided.

[1] = test system: KM-12 experimental tumor model; test: In vivo antitumor activity against the KM-12 experimental tumor model; details: oral route, (q1d6)x2 weeks schedule
Description: This activity is noticeable since colon cancer is overall poor responsive to chemotherapy.

TrkA = biological target: T1, TrkA (Homo sapiens, UniProt P04629); test: Test for measuring inhibition of TrkA kinase (Millipore or Kinome Scan, manufacturer's protocols); type: biochemical; details: 10 nM compound
T1 construct: purchased Millipore or Kinome Scan (DiscoverX)
T1 sequence (P04629 33-796): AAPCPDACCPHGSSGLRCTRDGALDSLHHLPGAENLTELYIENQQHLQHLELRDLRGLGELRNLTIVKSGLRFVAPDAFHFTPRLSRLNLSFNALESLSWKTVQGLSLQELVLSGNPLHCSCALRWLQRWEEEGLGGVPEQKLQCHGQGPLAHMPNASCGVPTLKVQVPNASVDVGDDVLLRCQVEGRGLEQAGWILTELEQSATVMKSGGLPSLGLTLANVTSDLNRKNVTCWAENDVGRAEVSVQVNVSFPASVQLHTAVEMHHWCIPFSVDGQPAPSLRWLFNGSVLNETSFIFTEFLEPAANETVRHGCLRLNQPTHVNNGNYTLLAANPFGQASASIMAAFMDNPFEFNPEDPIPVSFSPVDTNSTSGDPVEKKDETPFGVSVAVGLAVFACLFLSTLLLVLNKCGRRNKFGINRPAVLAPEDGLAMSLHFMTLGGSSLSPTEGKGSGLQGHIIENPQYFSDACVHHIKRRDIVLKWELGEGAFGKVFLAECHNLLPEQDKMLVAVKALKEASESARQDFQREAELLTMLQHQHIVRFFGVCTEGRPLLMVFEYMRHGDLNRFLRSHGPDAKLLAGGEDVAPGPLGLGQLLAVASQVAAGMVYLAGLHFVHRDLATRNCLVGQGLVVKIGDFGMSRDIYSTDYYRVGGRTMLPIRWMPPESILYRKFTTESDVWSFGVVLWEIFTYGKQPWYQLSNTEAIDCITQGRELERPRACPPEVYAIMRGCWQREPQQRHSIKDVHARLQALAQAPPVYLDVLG
Description: (§1) These kinases are produced by Millipore or Kinome Scan (DiscoverX) and are screened according to the manufacturer's protocols.

TrkB = biological target: T2, TrkB (Homo sapiens, UniProt Q16620); test: Test for measuring inhibition of TrkB kinase (Millipore or Kinome Scan, manufacturer's protocols); type: biochemical; details: 10 nM compound
T2 construct: purchased Millipore or Kinome Scan (DiscoverX)
T2 sequence (Q16620 32-822): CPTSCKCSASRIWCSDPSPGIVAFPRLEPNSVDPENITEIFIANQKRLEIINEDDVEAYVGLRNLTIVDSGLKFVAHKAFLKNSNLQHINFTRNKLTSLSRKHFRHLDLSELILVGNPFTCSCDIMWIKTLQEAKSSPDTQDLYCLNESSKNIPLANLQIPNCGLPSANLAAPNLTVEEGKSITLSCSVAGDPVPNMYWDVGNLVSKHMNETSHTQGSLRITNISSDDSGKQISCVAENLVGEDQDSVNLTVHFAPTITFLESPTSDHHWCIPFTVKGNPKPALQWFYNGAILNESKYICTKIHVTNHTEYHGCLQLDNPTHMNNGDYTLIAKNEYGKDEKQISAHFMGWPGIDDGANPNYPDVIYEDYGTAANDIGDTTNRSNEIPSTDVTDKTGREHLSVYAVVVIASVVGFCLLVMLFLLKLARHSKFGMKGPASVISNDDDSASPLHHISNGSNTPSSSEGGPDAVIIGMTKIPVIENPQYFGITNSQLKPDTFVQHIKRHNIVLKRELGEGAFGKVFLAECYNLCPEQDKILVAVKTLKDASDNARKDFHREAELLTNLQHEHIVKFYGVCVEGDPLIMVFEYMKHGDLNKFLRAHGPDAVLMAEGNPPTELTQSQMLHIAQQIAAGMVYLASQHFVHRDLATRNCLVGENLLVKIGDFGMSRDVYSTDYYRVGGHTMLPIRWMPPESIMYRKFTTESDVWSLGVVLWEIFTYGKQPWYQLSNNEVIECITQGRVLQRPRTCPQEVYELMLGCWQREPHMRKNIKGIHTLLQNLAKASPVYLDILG
Description: as §1

TrkB (or NTRK2) = biological target: T3, TrkB (or NTRK2) (Homo sapiens, UniProt Q16620); test: In vitro kinase glo plus-based kinase assay, TrkB; type: biochemical; details: N=36, 40 μM ATP
T3 construct: using the soluble intracellular segment of theses receptors, containing the kinase activity; purchased Invitrogen
T3 sequence (Q16620 455-822 limits assumed): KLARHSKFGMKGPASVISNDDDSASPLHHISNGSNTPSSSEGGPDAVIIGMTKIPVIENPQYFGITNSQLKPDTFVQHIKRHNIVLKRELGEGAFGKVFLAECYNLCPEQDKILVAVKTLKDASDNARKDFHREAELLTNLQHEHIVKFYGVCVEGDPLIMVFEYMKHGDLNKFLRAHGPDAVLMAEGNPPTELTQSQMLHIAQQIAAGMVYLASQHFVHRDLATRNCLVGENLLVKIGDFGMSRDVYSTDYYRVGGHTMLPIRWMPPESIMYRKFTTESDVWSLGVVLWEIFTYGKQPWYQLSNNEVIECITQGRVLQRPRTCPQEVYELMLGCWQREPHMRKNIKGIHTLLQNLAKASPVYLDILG
Method: An in vitro kinase glo plus-based kinase assay (Promega) was developed in a 96 wells assay plate format to assess the inhibiting properties of compounds on tropomyosin related kinases (Trk) receptors, using the soluble intracellular segment of theses receptors, containing the kinase activity (TrkA (or NTRK1; 400 ng/well; […] Invitrogen)). […] Plates were removed from incubator, and 50 μl of kinase-glo plus was added to each well, followed by a 10 minute incubation at room temperature. The luciferase-induced luminescence, which is proportional to the ATP remaining in the well, was measured on a luminometer. Controls on each plates included wells with the kinase alone (maximal ATP consumption, or 0% inhibition), wells without the kinase (maximal ATP signal or 100% inhibition), and wells with 20 μM staurosporine (positive control of inhibition). […] N=42; […]

IC50 (KM-12 colon cancer cells): 2.2 nM
SMILES: CN1CCN(c2ccc(C(=O)Nc3n[nH]c4nc(N)c(Sc5cc(F)cc(F)c5)cc34)c(NC3CCOCC3)c2)CC1 [Example 14-11, N-(6-amino-5-(3,5-difluorophenylthio)-1H-pyrazolo[3,4-b]pyridin-3-yl)-4-(4-methylpiperazin-1-yl)-2-(tetrahydro-2H-pyran-4-ylamino)benzamide]

IC50 (KM-12 colon cancer cells): 36 nM
SMILES: CN1CCN(c2ccc(C(=O)Nc3n[nH]c4ncc(Sc5cc(F)cc(F)c5)cc34)c(NC3CCOCC3)c2)CC1 [Example 30, N-(5-(3,5-difluorophenylthio)-1-H-pyrazolo[3,4-b]pyridine-3-yl)-4-(4-methylpiperazine-1-yl)-2-(tetrahydro-2H-pyran-4-ylamino)benzamide]
adverse effects ([1]; 120 and 240 mg/kg): without any adverse effects | tumor growth inhibition ([1]; recorded at 120 and 240 mg/kg, lasts one week after the end of treatment): up to 96%

Enzymatic inhibition at 10 nM (%) TrkA (TrkA): 55% | Enzymatic inhibition at 10 nM (%) TrkB (TrkB): 98%
SMILES: CN1CCN(c2ccc(C(=O)Nc3n[nH]c4ncc(Cc5cc(F)cc(F)c5)cc34)c(NC3CCOCC3)c2)CC1 [Example 30-9, N-(5-(3,5-difluorobenzyl)-1H-pyrazolo[3,4-b]pyridin-3-yl)-4-(4-methylpiperazin-1-yl)-2-(tetrahydro-2H-pyran-4-ylamino)benzamidc]

SMILES: COC(=O)[C@@]1(O)C[C@H]2O[C@]1(C)n1c3ccccc3c3c4c(c5c6ccccc6n2c5c31)C(=O)NC4 [Example K252a, K252a]
IC50 (TrkB (or NTRK2)): 74 nM | pIC50 on TrkB (TrkB (or NTRK2); mean±SD): 7.16±0.18

From US9428510B2, “Derivatives of azaindazole or diazaindazole type for treating a cancer overexpressing Trk” (PIERRE FABRE MEDICAMENT, priority 2012, dated 2016)
